In US20220313595A1, “Oral Care Compositions Comprising Hops” (The Procter & Gamble Company, priority 2021, published 2022):

Test system: plaque biofilm grown from fresh pooled human saliva
Assay: in vitro plaque glycolysis model (iPGRM): acid production and acid inhibition
Format: cell-based, plaque microorganisms from human saliva
Settings: TABLE 2, 3-day biofilm
Protocol: Acid production and acid inhibition were determined with the in vitro plaque glycolysis model (iPGRM). The purpose of this technique is to provide a simple and quick method for determining if compounds have an influence on the metabolic pathways that plaque microorganisms utilize to produce toxins that adversely affect gingival health. It is also useful to determine if compounds have an influence on the metabolic pathways that plaque microorganisms utilize to produce plaque acids that adversely affect teeth.
The in vitro plaque glycolysis model (iPGRM) is a technique in which plaque is grown from human saliva and treated with various agents to determine anti-glycolytic activity of treatments. When bacteria convert sugar into energy with the help of enzymes, acids are formed. These acids demineralize and damage the dental enamel. […]
[…] The pH of the media solutions was then measured to determine the amount of glycolysis inhibition relative to a negative control.
On Day 1, new glass rods (5 mm×90 mm) were polished approximately 25 mm from the un-tapered end on a lathe with silicon carbide paper of 240, 320, 400, and 600 grit used sequentially. […] After polishing, rods were stored until ready to run test. […]

Compound: [H]/N=C(\N/C(=N/[H])NCCCCCCNC(=N)NC(=N)Nc1ccc(Cl)cc1)Nc1ccc(Cl)cc1 [1% Chlorhexidine, Chlorhexidine]
- Acid Production (ΔpH) Mean (2 min treatment with dentifrice slurry or diluted treatment in water (1:5), ΔpH vs blank vials): 0.30 ΔpH
- Mean Acid Inhibition (%) Mean (relative to negative control Crest Cavity Protection): 80.77%
